Test results: BindingDB's records for PubMed 2139469 (University of Nebraska, 1990)
Structures can show the parent of a compound that is named as a salt.

These compounds were tested against D(1A) dopamine receptor (Bos taurus, UniProt Q95136).
D(1A) dopamine receptor, sequence (Q95136 whole entry): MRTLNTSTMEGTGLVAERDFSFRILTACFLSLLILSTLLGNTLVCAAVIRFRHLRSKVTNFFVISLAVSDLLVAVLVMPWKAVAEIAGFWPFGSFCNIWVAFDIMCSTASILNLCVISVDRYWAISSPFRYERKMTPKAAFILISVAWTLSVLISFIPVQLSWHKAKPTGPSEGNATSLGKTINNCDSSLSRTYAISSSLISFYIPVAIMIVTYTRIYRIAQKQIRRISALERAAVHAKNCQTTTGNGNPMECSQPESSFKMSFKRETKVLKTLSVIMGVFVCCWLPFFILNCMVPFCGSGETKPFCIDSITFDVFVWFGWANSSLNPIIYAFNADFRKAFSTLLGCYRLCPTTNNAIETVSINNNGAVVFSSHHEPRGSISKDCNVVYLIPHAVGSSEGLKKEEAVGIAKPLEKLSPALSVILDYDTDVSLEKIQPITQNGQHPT
In the case of CN1CCN2c3ccccc3Cc3ccccc3[C@H]2C1 [MIANSERIN (+)], the Ki is reported as 318 nM. In the case of O=C(CCCN1CCC(O)(c2ccc(Cl)cc2)CC1)c1ccc(F)cc1 [4-[4-(4-Chloro-phenyl)-4-hydroxy-piperidin-1-yl]-1-(4-fluoro-phenyl)-butan-1-one;propionate(HCl)], the Ki is reported as 315 nM. CCN1CCCC1CNC(=O)c1cc(S(N)(=O)=O)ccc1OC (configuration not stated) [N-[(1-ethylpyrrolidin-2-yl)methyl]-2-methoxy-5-sulfamoylbenzamide] gave a Ki greater than 10000 nM. O=C(c1ccc(F)cc1)C1CCN(CCn2c(=O)[nH]c3ccccc3c2=O)CC1 [3-(2-{4-[(4-fluorophenyl)carbonyl]piperidin-1-yl}ethyl)-1,2,3,4-tetrahydroquinazoline-2,4-dione] was tested, and the Ki was 395 nM. Compound C=CCN1CC[C@]23c4c5ccc(O)c4O[C@H]2C(=O)CC[C@@]3(O)[C@H]1C5 [[17-(2,3-3H-2-propenyl)]-4,5a-epoxy-3,14-dihydroxymorphinan-6-one] has a Ki greater than 10000 nM. With CN1[C@@H]2CC[C@H]1CC(OC(=O)[C@H](CO)c1ccccc1)C2 (some centres not stated) [CAS_51-55-8] the Ki was greater than 10000 nM. CN(C)CCCSc1ccccc1NC(=O)/C=C/c1ccccc1 [CINANSERIN] showed a Ki of 2090 nM. In the case of CC[C@@H](CO)NC(=O)[C@@H]1C=C2c3cccc4c3c(cn4C)C[C@H]2N(C)C1, the Ki is reported as 1580 nM. Compound OCCC1CCN(CC/C=C2/c3ccc(F)cc3Sc3ccc(C(F)(F)F)cc32)CC1 [Lu 12-331] has a Ki of 0.29 nM. CSc1ccc2c(c1)N(CC[C@@H]1CCCCN1C)c1ccccc1S2 [10-[2-(1-Methyl-piperidin-2-yl)-ethyl]-2-methylsulfanyl-10H-phenothiazine (thioridazine)] showed a Ki of 75.4 nM. Cc1ccc(N(CC2=NCCN2)c2cccc(O)c2)cc1 [SMR000059054] was tested, and the Ki was greater than 10000 nM. For O=c1[nH]c2ccccc2n1CCCN1CCC(n2c(=O)[nH]c3cc(Cl)ccc32)CC1, the Ki was 2040 nM.
